Assay results: patent US12428417B2, “Inhibitors of macrophage migration inhibitory factor” (The Brigham and Women's Hospital, Inc., priority 2019, dated 2025)

Legend:
[1] = tested on: P. falciparum infected RBC cultures; assay: FACS analysis of infected RBC cultures (schizont stage); assay type: cell-based; conditions: 48 to 60 hours post infection; data not shown
Description: (§1) P. falciparum strain NF54 attB parasites (Dr. Niles, MIT). Synchronized late-stage schizonts were added at 1% initial parasitemia to uninfected recipient normal RBCs and parasitemia was measured by FACS (FIG. 2). […] Given that ibudilast has inhibitory effect on the function of MIF as well as phosphodiesterase 4 (PDE4) in the RBC, it was evaluated whether specific inhibitors of MIF and PDE4 would cause major decline in parasitemia at similar dosages. While inhibition of parasite growth was not observed due to abolishing the function of PDE4 (data not shown), inhibition of the tautomerase activity of MIF in vitro by an irreversible inhibitor of MIF—4-IPP—caused a significant decline in the levels of parasitemia (FIG. 2).

[2] = tested on: Pf-infected RBCs; assay: Confocal microscopy of Pf-infected RBCs with BODIPY TR lipophilic intracellular staining (egress); assay type: cell-based, P. falciparum; conditions: treated Pf-infected RBCs; FIG. 3
Excerpt: One plane of confocal microscopy z-stack is shown.

[3] = tested on: P. falciparum strain NF54 attB parasites; assay: Invasion assay: synchronized late-stage schizonts added to uninfected RBCs, parasitemia measured by FACS; assay type: cell-based
Description: Experimental protocol: Synchronized late-stage schizonts were added at 1% initial parasitemia to uninfected recipient normal RBCs and parasitemia was measured by FACS. Parasitemia is normalized to the control no-inhibitor condition. Data analyzed by one-way ANOVA. Statistically significant differences are indicated with a star over the bar. Asterisk (*) indicates p<0.01 compared to control (no-inhibitor).
FIG. 2 describes results of invasion assay in presence of titrated amounts of MIF inhibitors. […] All data is normalized to the control no-inhibitor condition. […] Asterisk (*) indicates p<0.01 compared to control (no-inhibitor).
as §1

With Ic1cc(-c2ccccc2)ncn1 [Example 4-IPP] the “percentage of mature schizont” value [1] was “significant increase”, the “state of mature schizonts (egress)” value [2] was “mature schizonts remain encapsulated” and the parasitemia in vitro ([3]; 1% initial parasitemia, normal RBCs, FIG. 2) was “significantly lowered parasitemia”. For the same molecule, the “parasitemia after removal of inhibitor 6 h post-infection” value ([3]; inhibitor removed 6 h post-infection) was “did not recover the parasitemia” and the “parasitemia after treating only the recipient RBCs before infection” value ([3]; recipient RBCs treated 3 h and 6 h, inhibitor washed off before infection) was “parasitemia at the level of the control condition”.

With COC(=O)CC1CC(c2ccc(O)cc2)=NO1 (stereo not shown) [ISO-1] the “invasion at a range of concentrations” value ([3]; data not shown) was “did not reduce the invasion”.

B1: hu-MIF: exogenous human macrophage migration inhibitory factor added in the invasion assay (protein, UniProt P14174 2-115, looked up)
Macrophage migration …: PMFIVNTNVPRASVPDGFLSELTQQLAQATGKPPQYIAVHVVPDQLMAFGGSSEPCALCSLHSIGKIGGAQNRSYSKLLCGLLAERLRISPDRVYINYYDMNAANVGWNNSTFA
For B1, the “parasitemia in presence of exogenous protein” value ([3]; cells preincubated for up to 6 h, data not shown) was “did not show reduced or increased parasitemia”.
